Test results reported in the NIST ThermoML archive (doi:10.1021/je034102r).

Assay: molar heat capacity at constant pressure
Settings: 101.33 kPa, Liquid, heat bridge-scanning calorimeter

CCCCn1cc[n+](C)c1.F[P-](F)(F)(F)(F)F [1-butyl-3-methylimidazolium hexafluorophosphate]
Settings | molar heat capacity at constant pressure [J/K/mol]
495.63 K | 502.43
495.77 K | 502.43
495.91 K | 502.43
496.05 K | 502.72
496.18 K | 503.86
496.32 K | 504.14
496.46 K | 504.14
496.6 K | 503.29
496.9 K | 505.56
497.04 K | 506.13
497.17 K | 506.13
497.31 K | 504.99
497.45 K | 504.42
497.58 K | 504.14
497.72 K | 503.57
497.86 K | 503.57
498 K | 503.57
498.13 K | 503.29
498.27 K | 503.86
498.57 K | 504.71
498.7 K | 504.42
498.84 K | 505.84
498.98 K | 507.27
499.11 K | 506.98
499.25 K | 505.84
499.39 K | 504.99
499.52 K | 504.71
499.66 K | 504.42
499.96 K | 504.14
500.1 K | 504.42
500.24 K | 504.42
500.37 K | 504.42
500.51 K | 504.71
500.65 K | 505.56
500.79 K | 506.13
500.92 K | 506.41
501.06 K | 506.13
501.2 K | 506.41
501.34 K | 506.7
501.63 K | 505.84
501.78 K | 506.98
501.92 K | 507.55
502.06 K | 506.41
502.19 K | 505.84
502.33 K | 505.56
502.47 K | 505.28
502.61 K | 504.99
502.74 K | 505.28
503.05 K | 505.28
503.18 K | 504.99
503.32 K | 505.28
503.46 K | 505.28
503.59 K | 505.28
503.73 K | 505.84
503.87 K | 505.84
504.01 K | 505.84
504.14 K | 506.13
504.28 K | 507.55
504.42 K | 505.84
504.71 K | 505.84
504.85 K | 505.84
504.99 K | 506.13
505.13 K | 506.41
505.26 K | 506.7
505.4 K | 506.41
505.54 K | 506.98
505.68 K | 506.98
505.81 K | 505.84
506.11 K | 505.84
506.25 K | 506.13
506.39 K | 507.83
506.53 K | 507.27
506.66 K | 506.98
506.8 K | 506.98
506.94 K | 506.41
507.08 K | 506.13
507.21 K | 506.13
507.35 K | 506.7
507.49 K | 506.98
507.78 K | 507.27
507.92 K | 508.12
508.06 K | 508.12
508.21 K | 508.12
508.35 K | 507.27
508.48 K | 506.98
508.62 K | 506.98
508.76 K | 506.98
508.9 K | 507.27
509.2 K | 506.7
509.33 K | 506.98
509.47 K | 507.83
509.61 K | 508.69
509.75 K | 509.25
509.88 K | 509.25
510.02 K | 507.55
510.16 K | 506.7
510.29 K | 506.13
510.43 K | 506.7
510.57 K | 507.55
510.86 K | 507.83
511 K | 507.27
511.14 K | 506.7
511.28 K | 506.41
511.41 K | 505.84
511.55 K | 506.41
511.69 K | 507.27
511.83 K | 506.98
511.96 K | 506.41
512.26 K | 506.7
512.4 K | 507.27
512.54 K | 507.55
512.68 K | 507.55
512.81 K | 507.55
512.95 K | 506.98
513.09 K | 506.7
513.23 K | 506.98
513.36 K | 506.98
513.5 K | 506.7
513.64 K | 506.41
513.93 K | 506.13
514.07 K | 506.13
514.21 K | 506.13
514.35 K | 506.41
514.48 K | 507.27
514.62 K | 507.83
514.77 K | 507.83
514.91 K | 507.27
515.05 K | 506.98
515.35 K | 507.55
515.49 K | 507.55
515.62 K | 506.98
515.76 K | 506.98
515.9 K | 506.98
516.04 K | 507.27
516.18 K | 507.27
516.31 K | 506.98
516.45 K | 506.98
516.59 K | 506.98
516.73 K | 506.7
517.03 K | 507.27
517.16 K | 506.98
517.3 K | 507.27
517.44 K | 506.98
517.58 K | 506.98
517.71 K | 507.27
517.85 K | 506.98
517.99 K | 506.98
518.13 K | 507.27
518.43 K | 508.97
518.57 K | 508.12
518.71 K | 507.83
518.85 K | 507.55
518.98 K | 507.83
519.12 K | 508.12
519.26 K | 508.4
519.4 K | 508.4
519.53 K | 508.4
519.67 K | 508.12
519.81 K | 508.12
520.11 K | 508.12
520.24 K | 508.4
520.38 K | 508.97
520.52 K | 508.97
520.66 K | 509.25
520.79 K | 509.54
520.93 K | 509.54
521.07 K | 509.25
521.22 K | 508.97
521.52 K | 509.25
521.66 K | 509.25
521.8 K | 509.25
521.94 K | 509.25
522.07 K | 509.25
522.21 K | 509.54
522.35 K | 509.82
522.49 K | 510.39
522.62 K | 510.39
522.76 K | 510.11
522.9 K | 510.11
523.2 K | 510.11
523.33 K | 509.82
523.47 K | 509.82
523.61 K | 509.82
523.75 K | 509.82
523.88 K | 510.11
524.02 K | 510.39
524.16 K | 510.11
524.3 K | 509.82
524.6 K | 509.82
524.74 K | 510.11
524.87 K | 510.11
